What was measured:
[1] = system: DU145, BT20, H157, DLD1; test: Effect on tumor cell lines, viability by Trypan blue exclusion after 96 hours; type: cell-based; conditions: concentration required for 50% growth inhibition vs vehicle (DMSO) treated cells, doses 10 nM to 5 μM, one class for the four cell lines
Description: The effect of the α,β-unsaturated sulfoxides according to Formula I on tumor cells of prostate, colon, lung and breast origin was examined by utilizing the following cell lines: prostate tumor cell line DU-145; colorectal carcinoma cell line DLD-1; non-small cell lung carcinoma cell line H157; and breast tumor cell line BT-20. BT-20 is an estrogen-unresponsive cell line. BT-20, DLD-1 and H157 were grown in Dulbecco's modified Eagle's medium (DMEM) containing 10% fetal bovine serum supplemented with penicillin and streptomycin. DU145 was cultured in RPMI with 10% fetal bovine serum containing penicillin and streptomycin. NIH/3T3 (normal murine fibroblasts) and HFL-1cells (normal diploid human lung fibroblasts) were grown in DMEM containing 10% calf serum supplemented with penicillin and streptomycin.
Cells were plated at density levels of 1.0×10^5 cells per well in six-well plates. Cell cultures were maintained at 37° C. in a humidified atmosphere of 5% CO2.
Cells were treated with compounds of the invention at doses ranging from 10 nM to 5 μM concentration, and cell viability was determined after 96 hours by the Trypan blue exclusion method.
Values are reported as the GI50, i.e., the concentration (μM) required for 50% growth inhibition as compared to vehicle (DMSO) treated cells. The values reported in Table 7 are: ***=10-100 nM; **=100 nM-1μM; and *=>1μM.
Cells were treated with the test compound at concentrations in the range from 10 nM to 5 μM, and cell viability was determined after 96 hours by the Trypan blue exclusion method.

Row | SMILES | GI50 [1] | melting point
1 | COc1cc(OC)c(/C=C/[S+]([O-])Cc2ccc(OC)c([N+](=O)[O-])c2)c(OC)c1 (stereo not drawn) [Example 30] | > 1000 nM | 140 to 146 °C
2 | COc1cc(OC)c(/C=C/[S+]([O-])Cc2ccc(OC)c(O)c2)c(OC)c1 (stereo not drawn) [Example 31] | 10 to 100 nM | 112 to 115 °C
3 | COc1ccc(C[S+]([O-])/C=C/c2c(OC)cc(OC)cc2OC)cc1 (stereo not drawn) [Example 29] | 100 to 1000 nM | 92 to 94 °C

Further lines, results first:

Row | GI50 [1] | melting point | SMILES
4 | 10 to 100 nM | 136 to 140 °C | COc1cc(OC)c(/C=C/[S+]([O-])Cc2ccc(OC)c(N)c2)c(OC)c1 (stereo not drawn) [Example 33, (E)-2,4,6-trimethoxystyryl-4-methoxy-3-aminobenzylsulfoxide]
5 |  | 270 to 274 °C | O=C(O)c1ccc(/C=C/[S+]([O-])Cc2ccc(Cl)cc2)cc1 (stereo not drawn) [Example 32]

Source: patent US7744889B2, “Alpha, beta-unsaturated sulfoxides for treating proliferative disorders” (Temple University - Of The Commonwealth System of Higher …, priority 2003, dated 2010)
